Assay results: PMC6803673, “Molecular features of the UNC-45 chaperone critical for binding and folding muscle myosin” (Nature Communications, 2019)

Key:
[1] = target: T1, MHC-B (myosin II heavy chain isoform B, UNC-54) motor domain (Caenorhabditis elegans, UniProt P02566); assay: X-ray crystal structure, […] A; conditions: nucleotide-binding pocket of the motor domain; crystals pH 6.5, 4 °C
T1 construct: motor domain, residues 1-790, C-terminal His6-tag, co-expressed with C. elegans UNC-45 in High Five insect cells, monomeric
T1 sequence (P02566 1-790): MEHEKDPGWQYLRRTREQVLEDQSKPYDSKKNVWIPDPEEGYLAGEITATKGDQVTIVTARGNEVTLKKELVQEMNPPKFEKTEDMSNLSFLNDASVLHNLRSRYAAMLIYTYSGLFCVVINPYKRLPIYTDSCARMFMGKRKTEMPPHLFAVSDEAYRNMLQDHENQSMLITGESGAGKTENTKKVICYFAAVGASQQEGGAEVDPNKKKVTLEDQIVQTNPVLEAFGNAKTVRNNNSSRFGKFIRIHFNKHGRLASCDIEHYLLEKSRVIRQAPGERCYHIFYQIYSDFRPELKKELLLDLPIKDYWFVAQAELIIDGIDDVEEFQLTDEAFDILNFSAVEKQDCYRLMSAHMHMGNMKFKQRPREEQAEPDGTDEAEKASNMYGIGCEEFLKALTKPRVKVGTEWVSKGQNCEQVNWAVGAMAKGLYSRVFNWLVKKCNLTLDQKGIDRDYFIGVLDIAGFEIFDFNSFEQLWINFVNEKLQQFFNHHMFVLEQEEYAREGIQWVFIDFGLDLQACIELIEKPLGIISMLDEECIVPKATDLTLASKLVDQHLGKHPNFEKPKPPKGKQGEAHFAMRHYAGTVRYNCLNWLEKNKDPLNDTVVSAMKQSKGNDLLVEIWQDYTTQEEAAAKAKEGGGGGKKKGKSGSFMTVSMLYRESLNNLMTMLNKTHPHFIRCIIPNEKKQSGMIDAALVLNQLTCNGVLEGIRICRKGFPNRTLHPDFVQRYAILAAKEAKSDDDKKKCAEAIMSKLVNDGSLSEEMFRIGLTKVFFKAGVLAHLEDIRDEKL

[2] = target: T1, MHC-B (myosin II heavy chain isoform B, UNC-54) motor domain; assay: stopped-flow single turnover, intrinsic tryptophan fluorescence; type: biochemical; conditions: no actin; 20 mM MOPS pH 7.0, 25 mM KCl, 5 mM MgCl2, 20 °C
[3] = target: T2, UNC-45 wild type (bacterial) (C. elegans, UniProt G5EG62 1-961); assay: SEC; myosin incubated at 27 °C for 60 min, then with UNC-45 (wild-type or ts-mutant) on ice for 60 min; S200 PC 3.2 column, 20 mM Tris pH 8.0, 150 mM NaCl; conditions: both partners purified
T2 construct: UNC-45, C. elegans myosin chaperone, wild type; also called wt UNC-45; wt chaperone; source: E. coli BL21(RIL), purified (NiNTA, anion exchange, SEC)
T2 sequence: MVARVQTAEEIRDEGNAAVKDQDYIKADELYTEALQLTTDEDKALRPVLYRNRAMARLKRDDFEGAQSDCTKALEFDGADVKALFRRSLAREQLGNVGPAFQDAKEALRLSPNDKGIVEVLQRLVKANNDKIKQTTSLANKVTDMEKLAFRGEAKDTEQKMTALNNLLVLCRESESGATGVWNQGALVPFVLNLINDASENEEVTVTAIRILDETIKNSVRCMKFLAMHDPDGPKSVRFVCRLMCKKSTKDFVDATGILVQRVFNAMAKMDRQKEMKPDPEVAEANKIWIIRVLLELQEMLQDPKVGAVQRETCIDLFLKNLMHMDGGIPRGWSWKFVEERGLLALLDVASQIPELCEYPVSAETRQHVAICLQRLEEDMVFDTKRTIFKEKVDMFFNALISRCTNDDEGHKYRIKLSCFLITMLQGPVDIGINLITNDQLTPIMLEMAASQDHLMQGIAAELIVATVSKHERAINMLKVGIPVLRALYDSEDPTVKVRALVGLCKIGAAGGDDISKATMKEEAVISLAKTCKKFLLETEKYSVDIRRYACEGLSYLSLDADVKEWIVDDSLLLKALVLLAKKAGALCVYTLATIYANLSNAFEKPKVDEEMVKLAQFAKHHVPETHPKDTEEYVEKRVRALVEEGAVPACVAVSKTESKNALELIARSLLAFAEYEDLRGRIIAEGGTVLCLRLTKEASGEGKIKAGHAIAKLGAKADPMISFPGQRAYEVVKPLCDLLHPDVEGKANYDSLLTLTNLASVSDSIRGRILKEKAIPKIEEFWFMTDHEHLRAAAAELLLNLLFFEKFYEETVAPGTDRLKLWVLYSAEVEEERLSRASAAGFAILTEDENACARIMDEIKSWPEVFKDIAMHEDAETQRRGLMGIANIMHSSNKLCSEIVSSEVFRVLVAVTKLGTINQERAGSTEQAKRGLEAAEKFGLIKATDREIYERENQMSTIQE

[4] = target: the molecule itself; assay: crystal structure; UNC-45 mutant crystals grown by sitting drop vapor diffusion at 19 °C

## Nc1ncnc2c1ncn2[C@@H]1O[C@H](COP(=O)(O)OP(=O)(O)O)[C@@H](O)[C@H]1O [ADP]
[1]
  X-ray crystal structure, 1.9 A: we crystallized MHC-B and determined the structure of the ADP-bound state

## Nc1ncnc2c1ncn2[C@@H]1O[C@H](COP(=O)(O)OP(=O)(O)OP(=O)(O)O)[C@@H](O)[C@H]1O [ATP]
[2]
  stopped-flow single turnover, intrinsic tryptophan fluorescence: Upon ATP binding to the myosin motor domain Trp fluorescence is enhanced

B1: MHC-B muscle myosin motor domain (residues 1–790) (domain or fragment, C. elegans, UniProt P02566 1-790, looked up)
chain: MEHEKDPGWQYLRRTREQVLEDQSKPYDSKKNVWIPDPEEGYLAGEITATKGDQVTIVTARGNEVTLKKELVQEMNPPKFEKTEDMSNLSFLNDASVLHNLRSRYAAMLIYTYSGLFCVVINPYKRLPIYTDSCARMFMGKRKTEMPPHLFAVSDEAYRNMLQDHENQSMLITGESGAGKTENTKKVICYFAAVGASQQEGGAEVDPNKKKVTLEDQIVQTNPVLEAFGNAKTVRNNNSSRFGKFIRIHFNKHGRLASCDIEHYLLEKSRVIRQAPGERCYHIFYQIYSDFRPELKKELLLDLPIKDYWFVAQAELIIDGIDDVEEFQLTDEAFDILNFSAVEKQDCYRLMSAHMHMGNMKFKQRPREEQAEPDGTDEAEKASNMYGIGCEEFLKALTKPRVKVGTEWVSKGQNCEQVNWAVGAMAKGLYSRVFNWLVKKCNLTLDQKGIDRDYFIGVLDIAGFEIFDFNSFEQLWINFVNEKLQQFFNHHMFVLEQEEYAREGIQWVFIDFGLDLQACIELIEKPLGIISMLDEECIVPKATDLTLASKLVDQHLGKHPNFEKPKPPKGKQGEAHFAMRHYAGTVRYNCLNWLEKNKDPLNDTVVSAMKQSKGNDLLVEIWQDYTTQEEAAAKAKEGGGGGKKKGKSGSFMTVSMLYRESLNNLMTMLNKTHPHFIRCIIPNEKKQSGMIDAALVLNQLTCNGVLEGIRICRKGFPNRTLHPDFVQRYAILAAKEAKSDDDKKKCAEAIMSKLVNDGSLSEEMFRIGLTKVFFKAGVLAHLEDIRDEKL
notes: C. elegans body wall muscle myosin II heavy chain isoform B (MHC-B, UNC-54), motor domain, residues 1-790, cloned from C. elegans cDNA; In the SEC assays with UNC-45 the protein was heat-damaged (unfolded or misfolded) at 27 °C; Two vectors (pFastBac DUAL, pACEBac1) encode the same 1-790 His6 protein; also called myosin II heavy chain isoform B; UNC-54; source: High Five insect cells, …
[3]
  binding result: binds

B2: UNC-45 G427E (ts mutant, bacterial) (natural protein, C. elegans, UniProt G5EG62 1-961, looked up)
chain: MVARVQTAEEIRDEGNAAVKDQDYIKADELYTEALQLTTDEDKALRPVLYRNRAMARLKRDDFEGAQSDCTKALEFDGADVKALFRRSLAREQLGNVGPAFQDAKEALRLSPNDKGIVEVLQRLVKANNDKIKQTTSLANKVTDMEKLAFRGEAKDTEQKMTALNNLLVLCRESESGATGVWNQGALVPFVLNLINDASENEEVTVTAIRILDETIKNSVRCMKFLAMHDPDGPKSVRFVCRLMCKKSTKDFVDATGILVQRVFNAMAKMDRQKEMKPDPEVAEANKIWIIRVLLELQEMLQDPKVGAVQRETCIDLFLKNLMHMDGGIPRGWSWKFVEERGLLALLDVASQIPELCEYPVSAETRQHVAICLQRLEEDMVFDTKRTIFKEKVDMFFNALISRCTNDDEGHKYRIKLSCFLITMLQEPVDIGINLITNDQLTPIMLEMAASQDHLMQGIAAELIVATVSKHERAINMLKVGIPVLRALYDSEDPTVKVRALVGLCKIGAAGGDDISKATMKEEAVISLAKTCKKFLLETEKYSVDIRRYACEGLSYLSLDADVKEWIVDDSLLLKALVLLAKKAGALCVYTLATIYANLSNAFEKPKVDEEMVKLAQFAKHHVPETHPKDTEEYVEKRVRALVEEGAVPACVAVSKTESKNALELIARSLLAFAEYEDLRGRIIAEGGTVLCLRLTKEASGEGKIKAGHAIAKLGAKADPMISFPGQRAYEVVKPLCDLLHPDVEGKANYDSLLTLTNLASVSDSIRGRILKEKAIPKIEEFWFMTDHEHLRAAAAELLLNLLFFEKFYEETVAPGTDRLKLWVLYSAEVEEERLSRASAAGFAILTEDENACARIMDEIKSWPEVFKDIAMHEDAETQRRGLMGIANIMHSSNKLCSEIVSSEVFRVLVAVTKLGTINQERAGSTEQAKRGLEAAEKFGLIKATDREIYERENQMSTIQE
notes: UNC-45, C. elegans, temperature-sensitive point mutant G427E; the SEC assays used the native protein; also called tsG427E; source: E. coli BL21(RIL), purified (NiNTA, anion exchange, SEC); SeMet protein from B834-DE3 cells
[4]
  binding result: binds
